Source: patent US10954305B2 (Immunomedics, Inc., priority 2016, dated 2021)

How the values were obtained:
[1] = system: NCI-N87-S120; assay: in vitro cytotoxicity, MTS (Table 14); assay type: cell-based, human; details: for effect on SN-38 toxicity in S-120 cells: both S-120 cells, in vitro; for reversal of SN-38 resistance vs Ko143 and YHO-13351: limited studies
Method: (§1) Each cell line was maintained according to the recommendations of ATCC and routinely tested for mycoplasma using MYCOALERT™ mycoplasma detection kits (Lonza). The two SN-38-resistant cell lines, MDA-MB-231-5120 and NCI-N87-S120, were established by continuous exposure of the parental cells to stepwise increased concentrations of SN-38 from 6 pM to 120 nM over a period of approximately 2 years. In addition, a revertant cell line (NCI-N87-S120-REV) was obtained after culturing NCI-N87-S120 in SN-38-free medium for 4 months. The S-120 clones were maintained in medium containing 120 nM of SN-38, but cultured in drug-free medium for 7 to 14 days prior to any experiment. All cells were grown at 37° C. as monolayer cultures in a humidified atmosphere of 5% CO2.
(§2) In Vitro cytotoxicity. […] Briefly, cells were placed into wells of 96-well plates. […] From these working solutions, serial 5-fold dilutions were made in sterile media to yield final concentrations between 500 and 0.0064 nM in test wells. […] Cytotoxicity was measured as a percent of growth relative to untreated cells. Dose-response curves were generated from the mean of triplicate determinations, and IC50 values were calculated using GraphPad Prism Software V 6.05 (Advanced Graphics Software).
(§3) The effect of ABCG2 inhibitors on the IC50 values of SN-38 for the parental and resistant cell lines was determined from the respective dose-response curves obtained for SN-38 in the presence of a non-toxic concentration of ABCG2 inhibitors.

[2] = biological target: ABCG2 (Homo sapiens, UniProt Q9UNQ0); details: S-120 cells, FTC 10 μM
Chain of ABCG2 (Q9UNQ0 whole entry): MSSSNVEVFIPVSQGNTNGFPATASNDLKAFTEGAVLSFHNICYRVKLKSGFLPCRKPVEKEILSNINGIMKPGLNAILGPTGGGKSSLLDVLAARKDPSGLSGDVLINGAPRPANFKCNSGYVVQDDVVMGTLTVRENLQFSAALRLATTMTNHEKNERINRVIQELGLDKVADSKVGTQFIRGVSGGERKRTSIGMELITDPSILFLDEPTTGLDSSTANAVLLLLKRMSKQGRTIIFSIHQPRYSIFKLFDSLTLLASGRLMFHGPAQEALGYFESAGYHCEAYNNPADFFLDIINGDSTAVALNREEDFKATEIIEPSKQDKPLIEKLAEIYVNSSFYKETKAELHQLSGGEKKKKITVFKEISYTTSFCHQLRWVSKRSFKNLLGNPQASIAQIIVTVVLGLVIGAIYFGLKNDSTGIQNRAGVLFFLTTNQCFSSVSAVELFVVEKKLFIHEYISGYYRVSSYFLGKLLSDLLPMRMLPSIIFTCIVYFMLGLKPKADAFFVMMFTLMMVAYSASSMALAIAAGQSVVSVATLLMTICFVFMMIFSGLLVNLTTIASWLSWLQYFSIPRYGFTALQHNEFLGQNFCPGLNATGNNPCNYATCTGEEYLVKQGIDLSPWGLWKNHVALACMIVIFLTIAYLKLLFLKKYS

[3] = system: NCI-N87; assay: in vitro cytotoxicity, MTS (Table 14); assay type: cell-based; details: Homo sapiens, YHO-13351 2 μM, Ko143 1 μM where added
Method: as §1
In Vitro cytotoxicity. […] Briefly, cells were placed into wells of 96-well plates. […] Cytotoxicity was measured as a percent of growth relative to untreated cells. Dose-response curves were generated from the mean of triplicate determinations, and IC50 values were calculated using GraphPad Prism Software V 6.05 (Advanced Graphics Software).
as §3

[4] = system: MDA-MB-231-S120; assay: in vitro cytotoxicity, MTS (Table 14); assay type: cell-based, human
Method: as §1, §2, §3

[5] = system: MDA-MB-231; assay: in vitro cytotoxicity, MTS (Table 14); assay type: cell-based, human; details: Homo sapiens, YHO-13351 2 μM where added
Method: as §1, §2, §3

[6] = FIG. 12
[7] = system: SK-MES-1 human squamous cell lung tumors; assay: SK-MES-1 xenograft therapy; assay type: in vivo, nude mice; details: irinotecan at MTD
[8] = system: MDA-MB-468 TNBC tumors; assay: MDA-MB-468 TNBC xenograft therapy; assay type: in vivo, nude mice; details: one animal each, tumors progressed after irinotecan
[9] = monotherapy weekly or once every 3 weeks; cited from earlier work
[10] = in vivo; details: nude, mouse, 773 ug
[11] = system: COLO 205 tumors; assay: COLO 205 xenograft therapy; details: 24 mg SN-38/kg, q2dx5
[12] = system: NCI-N87-S-120 tumors; assay: SN-38-resistant xenograft therapy; details: IMMU-132 0.5 mg twice weekly ×4 weeks; irinotecan 40 mg/kg q2dx5
[13] = system: Capan-1 tumors; assay: CL2 vs CL2A linker, Capan-1 xenograft; assay type: in vivo, mice; details: 0.2 mg/kg SN-38 twice weekly × 4 weeks
Method: FIG. 4C. […] Capan-1 mice (N=10) were treated with 0.2 mg/kg ADC and tumors measured weekly.

[14] = system: BxPC-3; assay: dsDNA breaks, γH2AX flow cytometry; assay type: cell-based, human; details: 20 μg/ml for 30 min
Method: For drug activity testing, BxPC-3 cells were seeded in 6-well plates at 5×10^5 cells/well and held at 37° C. overnight. […] The following morning, cells were trypsinized briefly, spun down, stained with Fixable Viability Stain 450 (BD Biosciences, San Jose, Calif.), washed with 1% BSA-PBS, and then fixed in 4% formalin for 15 min, washed again and permeabilized in 0.15% Triton-X100 in PBS for another 15 min. After washing twice with 1% BSA-PBS, cells were incubated with mouse anti-γH2AX-AF488 (EMD Millipore Corporation, Temecula, Calif.) for 45 min at 4° C. The signal intensity of γH2AX was measured by flow cytometry using a BD FACSCanto (BD Biosciences, San Jose, Calif.).

[15] = system: Calu-3 tumors; assay: Calu-3 xenograft therapy; assay type: in vivo, nude mice; details: 0.4 mg/kg SN-38
[16] = biological target: T1, Trop-2 on multiple cell lines (Homo sapiens, UniProt P09758); assay: in vitro cell binding
T1 construct: endogenous in cells; host or cells: human solid tumour cell lines
T1 sequence (P09758 27-323): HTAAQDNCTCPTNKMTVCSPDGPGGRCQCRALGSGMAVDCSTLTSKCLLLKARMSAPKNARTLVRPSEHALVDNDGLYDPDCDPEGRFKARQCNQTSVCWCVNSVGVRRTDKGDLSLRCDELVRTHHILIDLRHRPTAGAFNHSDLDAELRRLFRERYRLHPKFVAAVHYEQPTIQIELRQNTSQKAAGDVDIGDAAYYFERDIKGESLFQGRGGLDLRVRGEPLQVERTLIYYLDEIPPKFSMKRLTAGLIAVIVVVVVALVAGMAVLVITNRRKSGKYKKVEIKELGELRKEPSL
Method: LumiGLO Chemiluminescent Substrate System (KPL, Gaithersberg, Md.) was used to detect antibody binding to cells. Briefly, cells were plated into a 96 black-well, flat-clear-bottom plate overnight. Antibodies were serially diluted 1:2 and added in triplicate, yielding a concentration range from 0.03 to 66.7 nM. After incubating for 1 h at 4° C., the media was removed and the cells washed with fresh cold media followed by the addition of a 1:20,000 dilution of goat-antihuman horseradish peroxidase-conjugated secondary antibody (Jackson Immunoresearch, West Grove, Pa.) for 1 h at 4° C. The plates were again washed before the addition of the LumiGLO reagent. Plates were read for luminescence using an Envision plate reader (Perkin Elmer, Boston Mass.). Data were analyzed by non-linear regression to determine the equilibrium dissociation constant (KD). Statistical comparisons of KD-values were made with Prism GraphPad Software (v4.03) (Advanced Graphics Software, Inc.; Encinitas, Calif.) using an F-Test on the best-fit curves for the data. Significance was set at P<0.05.

[17] = system: Capan-1 xenografts; assay: combined radioimmunotherapy and ADC, Capan-1 xenograft; assay type: in vivo, nude mice
Description: The present study examined combinations of ^90Y-hPAM4 IgG with RS7-SN-38 in nude mice bearing 0.35 cm^3 subcutaneous xenografts of the human pancreatic cancer cell line, Capan-1. […] These studies provide the first evidence that combined radioimmunotherapy and ADC enhances efficacy at safe doses.

COc1ccc2c3c([nH]c2c1)[C@H](C=C(C)C)N1C(=O)[C@@H]2CCCN2C(=O)[C@@H]1C3 [FTC]
effect on SN-38 toxicity in S-120 cells [1]: restored toxicity of SN-38 | reversal of SN-38 resistance vs Ko143 and YHO-13351 [1]: comparable or less potency | reduction of intracellular PhA on omission of FTC [2]: greater than 95%

COc1cc2c(cc1OC)CN(CCc1ccc(NC(=O)c3cccc4c(=O)c5cccc(OC)c5[nH]c34)cc1)CC2 [GF120918]
effect on SN-38 toxicity in S-120 cells [1]: restored toxicity of SN-38 | reversal of SN-38 resistance vs Ko143 and YHO-13351 [1]: comparable or less potency

CC(=O)O[C@H]1C(=O)[C@@]2(C)[C@H]([C@H](OC(=O)c3ccccc3)[C@]3(O)C[C@H](OC(=O)[C@H](O)[C@@H](NC(=O)c4ccccc4)c4ccccc4)C(C)=C1C3(C)C)[C@]1(OC(C)=O)CO[C@@H]1C[C@@H]2O [Paclitaxel]
IC50 [3]: 7.9 ± 4 nM | IC50 ([4]; Homo sapiens, MDA-MB-231-S120, YHO-13351 2 μM where added): 3.2 ± 0.7 nM | RF (resistance factor) ([4]; IC50 mean of MDA-MB-231-S120 / MDA-MB-231): 1.3 | IC50 [5]: 2.5 ± 0.1 nM | IC50 ([1]; Homo sapiens, NCI-N87-S120, YHO-13351 2 μM, Ko143 1 μM where added): 8.6 ± 6.5 nM | RF (resistance factor) ([1]; IC50 mean of NCI-N87-S120 / NCI-N87): 1.1

CCc1c2c(nc3ccc(O)cc13)-c1cc3c(c(=O)n1C2)COC(=O)[C@]3(O)CC [SN-38 (5 min - 2 h)]
AUC [6]: 3.9 (µg/mL·h)

CCc1c2c(nc3ccc(O[C@@H]4O[C@H](C(=O)O)[C@@H](O)[C@H](O)[C@H]4O)cc13)-c1cc3c(c(=O)n1C2)COC(=O)[C@]3(O)CC [SN-38G (5 min - 6 h)]
AUC [6]: 11.6 (µg/mL·h)

CCN(CC)CC(=O)OC1CCN(c2ccc(/C=C(\C#N)c3ccc(OC)c(OC)c3)s2)CC1.CS(=O)(=O)O [YHO-13351]
effect on SN-38 toxicity in S-120 cells [1]: restored toxicity of SN-38

CCc1c2c(nc3ccc(OC(=O)N4CCC(N5CCCCC5)CC4)cc13)-c1cc3c(c(=O)n1C2)COC(=O)[C@]3(O)CC [irinotecan, reference compound]
antitumor effect vs specific conjugate [7]: the same antitumor effects as the specific hRS7-SN-38 conjugate | decrease in tumor size on re-treatment [8]: 23% | grade 3 and 4 neutropenia incidence [9]: 14 to 26% | AUC [10]: 21000 ng·h/mL | efficacy at MTD [11]: as effective as hRS7-CL2-SN-38 | survival benefit [12]: no significant survival benefit

cyclosporine A
reversal of SN-38 resistance vs Ko143 and YHO-13351 [1]: comparable or less potency

hA20-CL2A-SN-38 [reference compound]
mice tumor-free at end of study (day 140) [13]: 20% | antitumor effect vs specific conjugate [7]: the same antitumor effects as the specific hRS7-SN-38 conjugate | Mean Fluorescence Intensity (γH2AX) [14]: 2246 ± 58 | Percent Positive (γH2AX) ([14]; listed as hA20-SN-38): 12.7 ± 2.4%

hRS7-CL2-SN-38
mice tumor-free at end of study (day 140) [13]: 40% | response at higher dose [15]: remained tumor-free until the end of the study on day 147

hRS7-NEM: hRS7 treated with TCEP and conjugated with N-ethylmaleimide [reference compound]
KD [16]: in the sub-nanomolar range

B1: ^90Y-hPAM4 (conjugate, chains of the INN, looked up)
VH: QVQLQQSGAEVKKPGASVKVSCEASGYTFPSYVLHWVKQAPGQGLEWIGYINPYNDGTQYNEKFKGKATLTRDTSINTAYMELSRLRSDDTAVYYCARGFGGSYGFAYWGQGTLVTVSS
VL: DIQLTQSPSSLSASVGDRVTMTCSASSSVSSSYLYWYQQKPGKAPKLWIYSTSNLASGVPARFSGSGSGTDFTLTISSLQPEDSASYFCHQWNRYPYTFGGGTRLEIK
modifications: 90Y radiolabel
mice tumor-free after 20 weeks ([17]; 75 μCi alone): 1 of 10 | animals tumor-free ([17]; 130 μCi RAIT alone): 5 of 10

B2: hPAM4: unconjugated humanized PAM4 anti-MUC5ac antibody (antibody, chains of the INN, looked up, V domains shown)
VH: QVQLQQSGAEVKKPGASVKVSCEASGYTFPSYVLHWVKQAPGQGLEWIGYINPYNDGTQYNEKFKGKATLTRDTSINTAYMELSRLRSDDTAVYYCARGFGGSYGFAYWGQGTLVTVSS
VL: DIQLTQSPSSLSASVGDRVTMTCSASSSVSSSYLYWYQQKPGKAPKLWIYSTSNLASGVPARFSGSGSGTDFTLTISSLQPEDSASYFCHQWNRYPYTFGGGTRLEIK
anti-tumor activity of unconjugated antibody ([17]; given alone): Neither unconjugated hPAM4 nor hRS7 antibodies had anti-tumor activity when given alone
